In PubChem BioAssay AID1918995 (Molecular Pharmacology Branch, DTP, NCI, 2023):

Test system: 324938-238-R-J1-PDC complex spheroid growth, % test/control
Assay: Anticancer human tumor 324938-238-R-J1-PDC patient-derived bladder carcinoma cell line growth inhibition [AhR]
Details: for IC50: curve of first compound; for viability, T/C: stronger effect = lower value
Method in brief: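 Agents were dosed in half-log steps down from roughly clinical Cmax, or from 10 microM where Cmax was unknown, alone and with AhR antagonists. Read-out: percent test/control growth of tumor spheroids containing HUVEC and MSC stromal cells.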

[1] = second compound 0.1 µM, first compound 0.00949 µM
[2] = second compound 0.1 µM, first compound 0.03 µM
[3] = second compound 0.1 µM, first compound 0.0949 µM
[4] = second compound 0.1 µM, first compound 0.3 µM
[5] = second compound 0.316 µM, first compound 0.00949 µM
[6] = second compound 0.316 µM, first compound 0.03 µM
[7] = second compound 0.316 µM, first compound 0.0949 µM
[8] = second compound 0.316 µM, first compound 0.3 µM
[9] = second compound 1 µM, first compound 0.00949 µM
[10] = second compound 1 µM, first compound 0.03 µM
[11] = second compound 1 µM, first compound 0.0949 µM
[12] = second compound 1 µM, first compound 0.3 µM
[13] = second compound 3.16 µM, first compound 0.00949 µM
[14] = second compound 3.16 µM, first compound 0.03 µM
[15] = second compound 3.16 µM, first compound 0.0949 µM
[16] = second compound 3.16 µM, first compound 0.3 µM
[17] = second compound 10 µM, first compound 0.00949 µM
[18] = second compound 10 µM, first compound 0.03 µM
[19] = second compound 10 µM, first compound 0.0949 µM
[20] = second compound 10 µM, first compound 0.3 µM
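Further: spheroids exposed to agents for seven days before viability read.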

| SMILES | IC50 (second compound 0.1 µM) | IC50 (second compound 0.316 µM) | IC50 (second compound 1 µM) | IC50 (second compound 3.16 µM) | IC50 (second compound 10 µM) | viability, T/C [1] | viability, T/C [2] | viability, T/C [3] | viability, T/C [4] | viability, T/C [5] | viability, T/C [6] | viability, T/C [7] | viability, T/C [8] | viability, T/C [9] | viability, T/C [10] | viability, T/C [11] | viability, T/C [12] | viability, T/C [13] | viability, T/C [14] | viability, T/C [15] | also measured |
| --- | --- | --- | --- | --- | --- | --- | --- | --- | --- | --- | --- | --- | --- | --- | --- | --- | --- | --- | --- | --- | --- |
| Nc1ncn(C2CC(O)C(CO)S2)c(=O)n1 (stereo not given) + Cc1ccccc1N=Nc1ccc(NC(=O)c2ccnn2C)c(C)c1 | > 300 nM | > 300 nM | > 300 nM | 290 nM | 296 nM | 91.7% | 78.5% | 72.6% | 53.4% | 98.3% | 82.6% | 71.8% | 54.3% | 78.7% | 78.7% | 65% | 55.4% | 66% | 70.4% | 60.9% | viability, T/C (second compound 0.1 µM, first compound 0.000949 µM): 83.2%; viability, T/C (second compound 0.1 µM, first compound 0.003 µM): 95.4%; viability, T/C (second compound 0.316 µM, first compound 0.000949 µM): 81.7%; viability, T/C (second compound 0.316 µM, first compound 0.003 µM): 90.2%; viability, T/C (second compound 1 µM, first compound 0.000949 µM): 97.1%; viability, T/C (second compound 1 µM, first compound 0.003 µM): 87.4%; viability, T/C (second compound 3.16 µM, first compound 0.000949 µM): 83.7%; viability, T/C (second compound 3.16 µM, first compound 0.003 µM): 85.4%; viability, T/C [16]: 48.5%; viability, T/C (second compound 10 µM, first compound 0.000949 µM): 81.6%; viability, T/C (second compound 10 µM, first compound 0.003 µM): 71.4%; viability, T/C [17]: 70.5%; viability, T/C [18]: 68.8%; viability, T/C [19]: 65.8%; viability, T/C [20]: 48.7% |
| O=C(C=Cn1cnc(-c2cc(C(F)(F)F)cc(C(F)(F)F)c2)n1)NNc1cnccn1 + Cc1ccccc1N=Nc1ccc(NC(=O)c2ccnn2C)c(C)c1 | 173 nM | 171 nM | 178 nM | 144 nM | 172 nM | 91.4% | 95.5% | 62.7% | 35.8% | 90.4% | 90.6% | 67.8% | 32.1% | 86.4% | 79.8% | 65.6% | 37.1% | 84.7% | 72% | 58.2% | viability, T/C (second compound 0.1 µM, first compound 0.949 µM): 19.1%; viability, T/C (second compound 0.1 µM, first compound 3 µM): 8.4%; viability, T/C (second compound 0.316 µM, first compound 0.949 µM): 19.9%; viability, T/C (second compound 0.316 µM, first compound 3 µM): 11.9%; viability, T/C (second compound 1 µM, first compound 0.949 µM): 18.6%; viability, T/C (second compound 1 µM, first compound 3 µM): 10.7%; viability, T/C [16]: 37.5%; viability, T/C (second compound 3.16 µM, first compound 0.949 µM): 23.4%; viability, T/C (second compound 3.16 µM, first compound 3 µM): 16.3%; viability, T/C [17]: 78.4%; viability, T/C [18]: 78.7%; viability, T/C [19]: 62.5%; viability, T/C [20]: 37.2%; viability, T/C (second compound 10 µM, first compound 0.949 µM): 26.7%; viability, T/C (second compound 10 µM, first compound 3 µM): 18.6% |
